We go through one compound from patent publication US20200260697A1, “METHODS OF MOUSE CLINICAL TRIAL” (CROWN BIOSCIENCE, INC. (TAICANG), priority 2016, published 2020).

Common to all, as to type: in vivo, mouse
The subject of experiment [1] is 42 PDXs including 13 esophageal cancers (ES), 21 gastric cancers (GA) and 8 lung cancers(LU). The experiment can be described thus: MCT evaluating cisplatin response on 42 PDXs, tumor volume analysed by linear mixed model (Equation 7) and AUC ratio. The procedure: In a MCT, tumor volume is measured at multiple time points for each mouse, and these tumor volumes are often correlated, as in a typical longitudinal study. As shown above, almost all growth curves under vehicle treatment can be modeled by the linear Equation 2, and under drug treatment, about 80% of the growth curves are linear or close to linear. If we introduce a quadratic term on the day (x^2), more than 90% of the growth curves can be fitted with R^2>0.7, and 97% with R^2>0.4. With such strong linearity, the linear mixed models (LMM) is a proper and powerful tool to analyze the clustered longitudinal data from MCTs (West B T et al., “Linear Mixed Models: A Practical Guide Using Statistical Software, Second Edition”, Crc Press (2014)). Specifically, a 3-level model is appropriate, in which PDX and mouse are random factors, and covariates at the PDX-level and mouse-level can be included (FIG. 9A). We used an MCT to illustrate the application of LMMs for drug response evaluation and biomarker discovery. The MCT evaluated cisplatin response (4 mg/kg, daily dosing for 3 weeks) on 42 PDXs including 13 esophageal cancers (ES), 21 gastric cancers (GA) and 8 lung cancers(LU), each PDX had 5-9 mice (FIGS. 9B-C). A general model was specified for tumor volume, in log scale, at day t for mouse i within PDX j as follows: [formula] The model used vehicle in ES as the reference. There were […], β0 for the intercept, β1 for the time slope, β2 and β3 quantify the growth rate difference of GA and LU with respect to ES, β4 measures cisplatin effect, β5 and β6 check if GA and LU respond differently to cisplatin. The model also had 5 random effects, including the residual ϵtij. In a MCT, we can view the cohort of PDXs as random samples from a PDX or patient population, therefore, they have different growth rates, which is modeled by the random effect u1j associated with the time slope. Similarly, we model the growth difference for mice within a PDX by the random effect u1i|j. Mice and PDX may also have different starting tumor volumes, which are modeled by the two random effects on intercept: u0j and u0i|j. Therefore, our LMM captures both PDX-level and mouse-level growth heterogeneity under vehicle and drug treatments. […] From the model, we can get fitted cancer specific growth curves, as well as PDX and mouse specific growth curves. On average, cisplatin reduces tumor growth rate by about 38%.

In the next experiment the test system is gastric cancer PDXs. The experiment can be described thus: LMM (Equation 8) of the cisplatin dataset with ERCC1 expression as covariate. To be noted: LMM Equation 8, gastric cancer PDXs. The source says: The LMM can readily incorporate PDX-level genomic covariates, e.g. gene expression and mutation, for biomarker analysis. We used the same dataset to examine if ERCC1 expression is related to cisplatin response in gastric cancer by fitting the following LMM:
lnVtij=β0+β1×Dayt+β2×Dayt×ERCC1j+β3×Dayt×Treatmentij+β4×Dayt×ERCC1j×Treatmentij+u0j+u1j×Dayt+u(0i|j)+u(1i|j)×Dayt+ϵtij (8)
In this model, β2 evaluates ERCC1 expression as a prognostic biomarker since it is for both vehicle and cisplatin groups. […] The coefficient β4 examines ERCC1 expression as a predictive biomarker for cisplatin. The fitted value of β4 is 0.0136, close to that of β2. Therefore, high ERCC1 expression acts adversely to cisplatin treatment (FIG. 9E). The parameter β3 quantifies cisplatin treatment and is estimated to be −0.0879. Results from our LMM may have clinical implications.

Experiment [2] has as its system 42 PDXs including 13 esophageal cancers (ES), 21 gastric cancers (GA) and 8 lung cancers(LU). In words: Survival analysis (PFS, OS) of the cisplatin MCT dataset, additive frailty model and proportional hazard Cox model. To be noted: cisplatin versus vehicle. From the text: Survival analysis are the most important endpoints of human clinical trials and can also be potentially adapted to MCT by first defining “clinical endpoint” of PFS (progress-free survival) and OS (overall survival) in preclinical setting. By the RECIST standard (Therasse P et al., J Natl Cancer Inst (2000) 92(3):205-16), we define PFS as the time until the starting tumor volume increases by 73%, and define OS as the time until the starting tumor volume triples, at which the tumor volume is usually between 300-600 mm^3, depending on initial tumor volumes. As we have shown in examples above, tumors already start exponential growth before it reaches 600 mm^3. The definitions are more of a custom and can certainly be adjusted otherwise. For example, Gao et al defined PFS as the time until tumor volume doubles (Gao H et al., Nat Med (2015) 21(11):1318-25). We can also define OS as the time until the starting tumor volume quadruples and so on.
In human oncology trails, survival time of patients is usually assumed to be independent of each other. […] Mice have correlated survival time both within a PDX and between treatments (FIGS. 10A-B). There is heterogeneity on hazard and drug response for PDXs. We used an additive frailty model to fit the survival data in MCTs (Rondeau V et al., J Statistical Software (2012) 47(4):1-28; Hanagal D D, Statistical Methods in Medical Research (2015) 24(6):936-36). In this model, the hazard function for the j-th mouse of the i-th PDX is
hij(t)=h0(t)exp(ui+(w+vi)Tij+β^TXi)
where h0(t) is the baseline hazard function. Parameter ui is the random effect (the first frailty term) associated with the i-th PDX that captures its characteristic growth, thus survival behavior, without drug treatment. Parameter vi is the random effect (the second frailty term) associated the i-th PDX that depicts its drug response deviating from the mean drug effect w of all PDXs. Tij is the treatment variable and it equals 0 for the vehicle treatment and 1 for the drug treatment; Xi is a vector for the PDX's covariates, e.g., cancer type and gene expression; β^T is the parameter vector quantifying the fixed effects of the covariates. The two random effects ui and vi assume a bivariate normal distribution with zero means, variance σ^2 and τ^2, and covariance ρστ. If the two random effects ui and vi are removed, the model reduces to the proportional hazard Cox model.
We used the cisplatin dataset in the previous example to illustrate modeling by the additive frailty model, using the R package frailtypack (Rondeau V et al., J Statistical Software (2012) 47(4):1-28). For simplicity, we used treatment as the sole covariate. By Equation 10, we observed that both frailty terms are significant larger than 0 (Wald test p-value<0.05) for PFS and OS analyses. […]

Structures are written as SMILES.

With `N.N.[Cl][Pt][Cl]` [cisplatin], the “response across cancer types” value in experiment [1] (ES, GA and LU PDXs, p-values for β5 and β6 >0.05) is on record as “comparable responses on the 3 cancer types”. In experiment [1] (LMM Equation 7, vehicle in ES as reference, REML estimate, second figure not defined, p-value 1.2E−19), the “β4 (Day × Treatment) estimate, cisplatin effect on growth rate of ln tumor volume” value is −0.0282(0.0031). Moreover, in experiment [1] (LMM Equation 7, checks if GA responds differently to cisplatin than ES, REML estimate, second figure not defined, p-value 0.35), the “β5 (Day × CancerTypeGA × Treatment) estimate” value was 0.0037(0.0039). Also, in experiment [1] (LMM Equation 7, checks if LU responds differently to cisplatin than ES, REML estimate, second figure not defined, p-value 0.84), the “β6 (Day × CancerTypeLU × Treatment) estimate” value is −0.0011(0.0052). Besides, the “reduction of tumor growth rate, on average (LMM)” value in experiment [1] (cisplatin 4 mg/kg, daily dosing for 3 weeks, 42 PDXs, 5-9 mice each, LMM Equation 7) is “about 38%”. For the same compound, the “reduction of tumor growth rate by the AUC ratio method” value in experiment [1] (cisplatin 4 mg/kg, daily dosing for 3 weeks, 42 PDXs, AUC ratio method) stood at 36%. In addition, the “β3 (Day × Treatment), quantifies cisplatin treatment” value in the experiment on gastric cancer PDXs (ERCC1 expression as covariate) is reported as −0.0879. In addition, the “β4 (Day × ERCC1 × Treatment), ERCC1 expression as predictive biomarker for cisplatin” value in the experiment with gastric cancer PDXs (positive value: high ERCC1 expression acts adversely to cisplatin treatment) is reported as 0.0136. Further, the “hazard ratio (HR) for OS” value in experiment [2] (additive frailty model, OS = time until starting tumor volume triples) is 0.21 (95% CI: 0.15-0.31). Besides, in experiment [2] (additive frailty model, PFS = time until starting tumor volume increases by 73%), the “hazard ratio (HR) for PFS” value is given as 0.40 (95% CI: 0.31-0.50). In experiment [2] (proportional hazard Cox model), the “OS HR” value is listed as 0.36 (95% CI: 0.28-0.46) and the “PFS HR” value is 0.48 (95% CI: 0.40-0.58).
